Among the data in US20230406885A1, “CYCLIC PEPTIDES FOR TRAPPING INTERLEUKIN-1 BETA” (MERCK SHARP & DOHME LLC, priority 2022, published 2023) are IC50 values, retold here.

pIC50: −log10 of the molar value. *1 amine or outer side, *2 acyl side, *3 side chain or, on linkers, in order; H or OH if unused. Where a SMILES comes first, the peptide text is derived from it. [ ]: non-standard residue; d: D form. Phe(4-(4-Ac-piperazinyl)) = CC(=O)N1CCN(c2ccc(C[C@H](N)C(=O)O)cc2)CC1; Trp(4-Cl)(βS-Me) = C[C@@H](c1c[nH]c2cccc(Cl)c12)[C@H](N)C(=O)O; Bip(4'-COOH) = N[C@@H](Cc1ccc(-c2ccc(C(=O)O)cc2)cc1)C(=O)O; X3 = CC(=O)N1CCN(c2ncc(C[C@H](N[*:1])C(=O)[*:2])cn2)CC1; 1Nal(3S-Me) = C[C@@H](c1cccc2ccccc12)[C@H](N)C(=O)O; Ala(indazol-1-yl) = N[C@@H](Cn1ncc2ccccc21)C(=O)O; Ala(indolin-1-yl) = N[C@@H](CN1CCc2ccccc21)C(=O)O; hPhe(4-CF3) = N[C@@H](CCc1ccc(C(F)(F)F)cc1)C(=O)O; Phe(4-COOH) = N[C@@H](Cc1ccc(C(=O)O)cc1)C(=O)O; h3Pal(5-CN) = N#Cc1cncc(CC[C@H](N)C(=O)O)c1; Pro(4R-NH2) = N[C@H]1CN[C@H](C(=O)O)C1; 1Nal = N[C@@H](Cc1cccc2ccccc12)C(=O)O; AEF = NCCOc1ccc(C[C@H](N)C(=O)O)cc1; hTyr = N[C@@H](CCc1ccc(O)cc1)C(=O)O; 4Pal = N[C@@H](Cc1ccncc1)C(=O)O; dDab = NCC[C@@H](N)C(=O)O; Orn = NCCC[C@H](N)C(=O)O; dNMeA = CN[C@H](C)C(=O)O; Dab = NCC[C@H](N)C(=O)O; Nva = CCC[C@H](N)C(=O)O; Dap = NC[C@H](N)C(=O)O; Aib = CC(C)(N)C(=O)O

This test deals with T1, Recombinant human IL-1β (Homo sapiens, UniProt P01584).
T1 construct: purchased BioLegend 579404
T1 sequence (P01584 117-269): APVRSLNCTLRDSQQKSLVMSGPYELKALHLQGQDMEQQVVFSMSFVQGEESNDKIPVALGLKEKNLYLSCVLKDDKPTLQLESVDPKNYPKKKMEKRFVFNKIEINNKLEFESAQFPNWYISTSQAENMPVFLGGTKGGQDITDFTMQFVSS
The experiment in a line: IL-6 assay in MRC5 cells: inhibition of IL-1β induced IL-6 secretion (AlphaLISA). It counts as cell-based. As to conditions: inhibition of IL-1β induced IL-6 secretion in MRC5 cells; IL-1β pre-incubated 1 hour with compound; read-out: MRC5 IC50. Summed up:
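IL-1β at 2×EC80 in seeding medium (EMEM, 0.025% BSA) preincubated 1 h at ambient temperature with compound, then 3000 MRC5 cells/well added and incubated overnight at 37 °C, 5% CO2. IL-6 in conditioned medium quantified by AlphaLISA; IC50 from 4-parameter logistic fit.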
As usually defined, the pIC50 is the negative decadic logarithm of the IC50, by convention in mol/L. Turning to `CC(=O)N1CCN(c2ccc(C[C@@H]3NC(=O)[C@H](CCc4ccc(O)cc4)NC(=O)[C@@H](CCN)NC(=O)CNC(=O)[C@H](Cc4c[nH]c5ccccc45)NC(=O)[C@H](Cc4ccc(-c5ccc(C(=O)O)cc5)cc4)NC(=O)CNC(=O)[C@@H](C)N(C)C(=O)[C@H](CC(=O)O)NC(=O)[C@H]([C@@H](C)c4c[nH]c5cccc(Cl)c45)NC(=O)[C@@H]4C[C@@H](N)CN4C(=O)CNC(=O)[C@H](Cc4ccc(C(=O)O)cc4)NC(=O)[C@H](Cc4c[nH]c5ccccc45)NC3=O)cc2)CC1` [Example 85] (cyclo([Phe(4-(4-Ac-piperazinyl))]W[Phe(4-COOH)]G[Pro(4R-NH2)][Trp(4-Cl)(βS-Me)]D[dNMeA]G[Bip(4'-COOH)]WG[dDab][hTyr])), the pIC50 is 10.26.
As for `CC(=O)N1CCN(c2ncc(C[C@@H]3NC(=O)[C@H](CCc4ccc(O)cc4)NC(=O)[C@@H](C)NC(=O)[C@H](CN)NC(=O)[C@H](Cc4c[nH]c5ccccc45)NC(=O)[C@H](Cc4ccc(-c5ccc(C(=O)O)cc5)cc4)NC(=O)CNC(=O)[C@@H](C)N(C)C(=O)[C@H](CC(=O)O)NC(=O)[C@H]([C@@H](C)c4cccc5ccccc45)NC(=O)[C@@H]4C[C@@H](N)CN4C(=O)CNC(=O)[C@H](Cc4ccc(C(=O)O)cc4)NC(=O)[C@H](Cc4c[nH]c5ccccc45)NC3=O)cn2)CC1` [Example 88] (cyclo([X3]W[Phe(4-COOH)]G[Pro(4R-NH2)][1Nal(3S-Me)]D[dNMeA]G[Bip(4'-COOH)]W[Dap][dA][hTyr])), the figure is 10.02.
As for `CC(=O)NCCOc1ccc(C[C@@H]2NC(=O)[C@H](CCc3ccc(O)cc3)NC(=O)[C@@H](C)NC(=O)[C@H](CN)NC(=O)[C@H](Cc3c[nH]c4ccccc34)NC(=O)[C@H](Cc3ccc(-c4ccc(C(=O)O)cc4)cc3)NC(=O)CNC(=O)[C@@H](C)N(C)C(=O)[C@H](C)NC(=O)[C@H]([C@@H](C)c3cccc4ccccc34)NC(=O)[C@@H]3C[C@@H](N)CN3C(=O)CNC(=O)[C@H](Cc3ccc(C(=O)O)cc3)NC(=O)[C@H](Cc3c[nH]c4ccccc34)NC2=O)cc1` [Example 89] (cyclo([AEF](Ac)W[Phe(4-COOH)]G[Pro(4R-NH2)][1Nal(3S-Me)]A[dNMeA]G[Bip(4'-COOH)]W[Dap][dA][hTyr])), the figure is 9.57; as for `CC(=O)NCCOc1ccc(C[C@@H]2NC(=O)[C@H](CCc3cncc(C#N)c3)NC(=O)[C@@H](CCN)NC(=O)CNC(=O)[C@H](Cn3ncc4ccccc43)NC(=O)[C@H](Cc3ccc(-c4ccc(C(=O)O)cc4)cc3)NC(=O)CNC(=O)[C@@H](C)N(C)C(=O)[C@H](CC(=O)O)NC(=O)[C@H]([C@@H](C)c3cccc4ccccc34)NC(=O)[C@@H]3C[C@@H](N)CN3C(=O)CNC(=O)[C@H](Cc3ccc(C(=O)O)cc3)NC(=O)[C@H](Cc3c[nH]c4ccccc34)NC2=O)cc1` [Example 90] (cyclo([AEF](Ac)W[Phe(4-COOH)]G[Pro(4R-NH2)][1Nal(3S-Me)]D[dNMeA]G[Bip(4'-COOH)][Ala(indazol-1-yl)]G[dDab][h3Pal(5-CN)])), 10.29; as for `CC(=O)NCCOc1ccc(C[C@@H]2NC(=O)[C@H](CCc3cncc(C#N)c3)NC(=O)[C@@H](CCN)NC(=O)CNC(=O)[C@H](CN3CCc4ccccc43)NC(=O)[C@H](Cc3ccc(-c4ccc(C(=O)O)cc4)cc3)NC(=O)CNC(=O)[C@@H](C)N(C)C(=O)[C@H](CC(=O)O)NC(=O)[C@H]([C@@H](C)c3cccc4ccccc34)NC(=O)[C@@H]3C[C@@H](N)CN3C(=O)CNC(=O)[C@H](Cc3ccc(C(=O)O)cc3)NC(=O)[C@H](Cc3c[nH]c4ccccc34)NC2=O)cc1` [Example 91] (cyclo([AEF](Ac)W[Phe(4-COOH)]G[Pro(4R-NH2)][1Nal(3S-Me)]D[dNMeA]G[Bip(4'-COOH)][Ala(indolin-1-yl)]G[dDab][h3Pal(5-CN)])), 10.63.
The result for `CC(=O)NCCOc1ccc(C[C@@H]2NC(=O)CNC(=O)C(C)(C)NC(=O)[C@H](CCN)NC(=O)[C@H](Cc3cccc4ccccc34)NC(=O)[C@H](Cc3ccc(-c4ccc(C(=O)O)cc4)cc3)NC(=O)CNC(=O)[C@@H](C)N(C)C(=O)[C@H](CC(=O)O)NC(=O)[C@H]([C@@H](C)c3cccc4ccccc34)NC(=O)[C@@H]3C[C@@H](N)CN3C(=O)CNC(=O)[C@H](Cc3ccc(C(=O)O)cc3)NC(=O)[C@H](Cc3c[nH]c4ccccc34)NC2=O)cc1` [Example 92] (cyclo([AEF](Ac)W[Phe(4-COOH)]G[Pro(4R-NH2)][1Nal(3S-Me)]D[dNMeA]G[Bip(4'-COOH)][1Nal][Dab][Aib]G)) reads 9.34; that for `CC(=O)NCCOc1ccc(C[C@@H]2NC(=O)[C@H](CCc3ccc(O)cc3)NC(=O)C(C)(C)NC(=O)[C@H](CCN)NC(=O)[C@H](Cc3cccc4ccccc34)NC(=O)[C@H](Cc3ccc(-c4ccc(C(=O)O)cc4)cc3)NC(=O)CNC(=O)[C@@H](C)N(C)C(=O)[C@H](CC(=O)O)NC(=O)[C@H]([C@@H](C)c3cccc4ccccc34)NC(=O)[C@@H]3C[C@@H](N)CN3C(=O)CNC(=O)[C@H](Cc3ccc(C(=O)O)cc3)NC(=O)[C@H](Cc3c[nH]c4ccccc34)NC2=O)cc1` [Example 93] (cyclo([AEF](Ac)W[Phe(4-COOH)]G[Pro(4R-NH2)][1Nal(3S-Me)]D[dNMeA]G[Bip(4'-COOH)][1Nal][Dab][Aib][hTyr])), 9.92; that for `CC(=O)NCCOc1ccc(C[C@@H]2NC(=O)[C@H](CCc3cncc(C#N)c3)NC(=O)C(C)(C)NC(=O)[C@H](CN)NC(=O)[C@H](Cc3cccc4ccccc34)NC(=O)[C@H](Cc3ccc(-c4ccc(C(=O)O)cc4)cc3)NC(=O)CNC(=O)[C@@H](C)N(C)C(=O)[C@H](CC(=O)O)NC(=O)[C@H]([C@@H](C)c3cccc4ccccc34)NC(=O)[C@@H]3C[C@@H](N)CN3C(=O)CNC(=O)[C@H](Cc3ccc(C(=O)O)cc3)NC(=O)[C@H](Cc3c[nH]c4ccccc34)NC2=O)cc1` [Example 94] (cyclo([AEF](Ac)W[Phe(4-COOH)]G[Pro(4R-NH2)][1Nal(3S-Me)]D[dNMeA]G[Bip(4'-COOH)][1Nal][Dap][Aib][h3Pal(5-CN)])), 10.19.
Consider `CC(=O)NCCOc1ccc(C[C@@H]2NC(=O)CNC(=O)C(C)(C)NC(=O)[C@H](CC(C)C)NC(=O)[C@H](Cc3cccc4ccccc34)NC(=O)[C@H](Cc3ccc(-c4ccc(C(=O)O)cc4)cc3)NC(=O)CNC(=O)[C@@H](C)N(C)C(=O)[C@H](CC(=O)O)NC(=O)[C@H]([C@@H](C)c3cccc4ccccc34)NC(=O)[C@@H]3C[C@@H](N)CN3C(=O)CNC(=O)[C@H](Cc3ccc(C(=O)O)cc3)NC(=O)[C@H](Cc3c[nH]c4ccccc34)NC2=O)cc1` [Example 95] (cyclo([AEF](Ac)W[Phe(4-COOH)]G[Pro(4R-NH2)][1Nal(3S-Me)]D[dNMeA]G[Bip(4'-COOH)][1Nal]L[Aib]G)), for which the negative logarithm of the IC50 (pIC50) was 9.37.
As for `CC(=O)NCCOc1ccc(C[C@@H]2NC(=O)[C@H](C)NC(=O)[C@@H](C)NC(=O)[C@H](CC(C)C)NC(=O)[C@H](Cc3cccc4ccccc34)NC(=O)[C@H](Cc3ccc(-c4ccc(C(=O)O)cc4)cc3)NC(=O)CNC(=O)[C@@H](C)N(C)C(=O)[C@H](CC(=O)O)NC(=O)[C@H]([C@@H](C)c3cccc4ccccc34)NC(=O)[C@@H]3C[C@@H](N)CN3C(=O)CNC(=O)[C@H](Cc3ccc(C(=O)O)cc3)NC(=O)[C@H](Cc3c[nH]c4ccccc34)NC2=O)cc1` [Example 97] (cyclo([AEF](Ac)W[Phe(4-COOH)]G[Pro(4R-NH2)][1Nal(3S-Me)]D[dNMeA]G[Bip(4'-COOH)][1Nal]L[dA]A)), the figure is 9.53.
As for `CCC[C@@H]1NC(=O)[C@H](Cc2cccc3ccccc23)NC(=O)[C@H](Cc2ccc(-c3ccc(C(=O)O)cc3)cc2)NC(=O)CNC(=O)[C@@H](C)N(C)C(=O)[C@H](CC(=O)O)NC(=O)[C@H]([C@@H](C)c2cccc3ccccc23)NC(=O)[C@@H]2C[C@@H](N)CN2C(=O)CNC(=O)[C@H](Cc2ccc(C(=O)O)cc2)NC(=O)[C@H](Cc2c[nH]c3ccccc23)NC(=O)[C@H](Cc2ccc(OCCNC(C)=O)cc2)NC(=O)[C@H](C)NC(=O)[C@@H](C)NC1=O` [Example 98] (cyclo([AEF](Ac)W[Phe(4-COOH)]G[Pro(4R-NH2)][1Nal(3S-Me)]D[dNMeA]G[Bip(4'-COOH)][1Nal][Nva][dA]A)), the figure is 9.31.
As for `CC(=O)NCCOc1ccc(C[C@@H]2NC(=O)[C@H](CCc3ccc(O)cc3)NC(=O)C(C)(C)NC(=O)[C@H](CCCN)NC(=O)[C@H](Cc3cccc4ccccc34)NC(=O)[C@H](Cc3ccc(-c4ccc(C(=O)O)cc4)cc3)NC(=O)CNC(=O)[C@@H](C)N(C)C(=O)[C@H](CC(=O)O)NC(=O)[C@H]([C@@H](C)c3cccc4ccccc34)NC(=O)[C@@H]3C[C@@H](N)CN3C(=O)CNC(=O)[C@H](Cc3ccc(C(=O)O)cc3)NC(=O)[C@H](Cc3c[nH]c4ccccc34)NC2=O)cc1` [Example 99] (cyclo([AEF](Ac)W[Phe(4-COOH)]G[Pro(4R-NH2)][1Nal(3S-Me)]D[dNMeA]G[Bip(4'-COOH)][1Nal][Orn][Aib][hTyr])), the figure is 9.59; as for `CC(=O)NCCOc1ccc(C[C@@H]2NC(=O)[C@H](CCc3ccc(C(F)(F)F)cc3)NC(=O)[C@@H](C)NC(=O)[C@H](CCN)NC(=O)[C@H](Cc3ccncc3)NC(=O)[C@H](Cc3ccc(-c4ccc(C(=O)O)cc4)cc3)NC(=O)CNC(=O)[C@@H](C)N(C)C(=O)[C@H](CC(=O)O)NC(=O)[C@H]([C@@H](C)c3cccc4ccccc34)NC(=O)[C@@H]3C[C@@H](N)CN3C(=O)CNC(=O)[C@H](Cc3ccc(C(=O)O)cc3)NC(=O)[C@H](Cc3c[nH]c4ccccc34)NC2=O)cc1` [Example 100] (cyclo([AEF](Ac)W[Phe(4-COOH)]G[Pro(4R-NH2)][1Nal(3S-Me)]D[dNMeA]G[Bip(4'-COOH)][4Pal][Dab][dA][hPhe(4-CF3)])), 9.56; as for `CC(=O)NCCOc1ccc(C[C@@H]2NC(=O)[C@H](CCc3ccc(O)cc3)NC(=O)[C@@H](C)NC(=O)[C@H](CCN)NC(=O)[C@H](Cc3ccncc3)NC(=O)[C@H](Cc3ccc(-c4ccc(C(=O)O)cc4)cc3)NC(=O)CNC(=O)[C@@H](C)N(C)C(=O)[C@H](CC(=O)O)NC(=O)[C@H]([C@@H](C)c3cccc4ccccc34)NC(=O)[C@@H]3C[C@@H](N)CN3C(=O)CNC(=O)[C@H](Cc3ccc(C(=O)O)cc3)NC(=O)[C@H](Cc3c[nH]c4ccccc34)NC2=O)cc1` [Example 101] (cyclo([AEF](Ac)W[Phe(4-COOH)]G[Pro(4R-NH2)][1Nal(3S-Me)]D[dNMeA]G[Bip(4'-COOH)][4Pal][Dab][dA][hTyr])), 9.61.
